{
  "source": "patent US7217800B2",
  "about": "“Peptide leukotriene receptor” (Astellas Pharma Inc., priority 1999, dated 2007)",
  "key": {"pig LTC4 receptor [1]": {"target": "T1, pig LTC4 receptor (Sus scrofa, UniProt Q95N03)", "T1 construct": "expressed in transfected cells", "T1 sequence (Q95N03 1-345)": "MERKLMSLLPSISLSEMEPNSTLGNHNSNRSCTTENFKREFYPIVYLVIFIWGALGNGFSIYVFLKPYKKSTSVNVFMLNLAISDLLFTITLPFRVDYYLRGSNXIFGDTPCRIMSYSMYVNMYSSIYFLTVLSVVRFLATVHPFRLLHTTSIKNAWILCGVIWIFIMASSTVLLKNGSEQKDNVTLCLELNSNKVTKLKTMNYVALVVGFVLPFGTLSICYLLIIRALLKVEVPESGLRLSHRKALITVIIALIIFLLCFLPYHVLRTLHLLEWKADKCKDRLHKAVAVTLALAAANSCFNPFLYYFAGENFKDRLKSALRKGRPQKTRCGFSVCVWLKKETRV", "experiment": "Increase of intracellular Ca++ concentration, HEK293-EBNA cells transfected with pEF-BOS-pig LTC4 receptor", "type": "cell-based", "settings": "Logistic regression", "protocol": "(§1) 2.5×10^4 cells per well of HEK293-EBNA cells were inoculated to 96 well Black/clear bottom plate, collagen type I coated (BECTON DICKINSON). After culturing for 24 hours, 40 ng per well of pEF-BOS-PSECO 146 or pEF-BOS (empty vector) were transfected into the cells using FuGENE6 (Boeringer Mannheim). 24 hours after gene transfection, the medium was discarded, 100 μl per well of DMEM containing 4 μM Fluo-3, AM (Molecular Probe), 0.004% pluronic acid, and 10% FBS was added and incubated for 1 hour at 37° C. Following incubation, cells were washed four times with Hanks BSS containing 20 mM HEPES (GIBCO), then 100 μl per well of Hanks BSS containing 20 mM HEPES was added. The time course of the changes of intracellular Ca^++ concentration was measured using FLIPR (Molecular Device).\nFurther, the changes of intracellular Ca^++ concentration were measured using HEK293-EBNA cells under the same condition as in Example 5."}, "rat LTC4 receptor": {"target": "T2, rat LTC4 receptor (Rattus norvegicus, UniProt Q924T9)", "T2 construct": "expressed in transfected cells", "T2 sequence (Q924T9 1-309)": "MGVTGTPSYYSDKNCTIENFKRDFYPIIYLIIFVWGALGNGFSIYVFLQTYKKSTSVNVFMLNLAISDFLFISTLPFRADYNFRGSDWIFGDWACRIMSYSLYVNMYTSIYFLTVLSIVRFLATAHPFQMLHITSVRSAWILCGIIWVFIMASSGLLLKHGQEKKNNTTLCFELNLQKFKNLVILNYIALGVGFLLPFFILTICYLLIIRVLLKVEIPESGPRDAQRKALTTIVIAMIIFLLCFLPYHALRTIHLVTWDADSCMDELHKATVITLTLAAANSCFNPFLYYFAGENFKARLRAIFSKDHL", "experiment": "Increase of intracellular Ca++ concentration, HEK293-EBNA cells transfected with pEF-BOS-rat LTC4 receptor", "type": "cell-based", "settings": "Logistic regression", "protocol": "as §1\nThis plasmid was designated as pEF-BOS-rat LTC4 receptor.\nThe changes of intracellular Ca^++ concentration were measured using HEK293-EBNA cells under the same condition as in Example 5."}, "[2]": {"tested_on": "human coronary arterial smooth muscle cells", "experiment": "Increase of intracellular Ca++ concentration by LTC4 in coronary arterial smooth muscle cells", "type": "cell-based", "protocol": "The medium was discarded, and by adding 100 μl/well of Hanks BSS containing 4 μM Fluo-3, AM (Molecular Probe), 0.004% pluronic acid, 1% FBS, 20 mM HEPES, and 2.5 mM probenecid, the cells were incubated for 1 hour at 37° C. […] It is well known that the increase of intracellular Ca^++ concentration in blood vessel smooth muscle cells causes vasoconstriction (Bolton, T. B., et al. Physiol. Rev. (1979) 59, 606–718)."}, "pig LTC4 receptor [3]": {"target": "T1, pig LTC4 receptor", "experiment": "[3H]-LTC4 saturation binding, membrane fraction of COS-1 cells transfected with pEF-BOS-pig LTC4 receptor", "protocol": "2×10^6 COS-1 cells were inoculated to a […] culture flask and cultured for 36 hours, and then, 50 μg of pEF-BOS-PSEC0146 or pEF-BOS (empty vector) was transfected using FuGENE6 (Boeringer Mannheim) Cells cultured for 36 hours following gene transfection were recovered and washed, then suspended in 20 mM Tris-HCl (pH 7.4), 5 mM EDTA and homogenized with a Polytron homogenizer. After ultracentrifugation, the homogenized cells were suspended in 50 mM HEPES (pH 7.4), 40 mM MgCl2, 1 mM EGTA as a membrane fraction. 0.5 to 14×10^−9 M of [^3H]-LTC4 (Daiichi Pure Chemicals) at final concentration was added to 5 μg of the membrane fraction, and incubated 1 hour at room temperature in 250 μl solution comprising 50 mM HEPES (pH 7.4), 40 mM MgCl2, 1 mM EGTA, 5 mM L-Serine, 10 mM Borate, 2 mM L-Cystein, and 2 mM L-Glycine. Thereafter, the membrane fraction was recovered on a glass filter using a cell harvester. Micro-scintillator was added to the glass filter and the total binding to the membrane fraction was measured by using a liquid scintillation counter. […]\nFirst, to express the protein encoded by the cDNA, the cDNA was obtained by PCR using pig genomic DNA as the template. The nucleotide sequence of primers required for PCR was designed based on the nucleotide sequence information determined in Example 15. […]"}, "LTC4 receptor [4]": {"target": "T3, LTC4 receptor (Homo sapiens, UniProt Q9NS75)", "T3 construct": "expressed in transfected cells; whole cells or membrane fraction", "T3 sequence (Q9NS75 1-346)": "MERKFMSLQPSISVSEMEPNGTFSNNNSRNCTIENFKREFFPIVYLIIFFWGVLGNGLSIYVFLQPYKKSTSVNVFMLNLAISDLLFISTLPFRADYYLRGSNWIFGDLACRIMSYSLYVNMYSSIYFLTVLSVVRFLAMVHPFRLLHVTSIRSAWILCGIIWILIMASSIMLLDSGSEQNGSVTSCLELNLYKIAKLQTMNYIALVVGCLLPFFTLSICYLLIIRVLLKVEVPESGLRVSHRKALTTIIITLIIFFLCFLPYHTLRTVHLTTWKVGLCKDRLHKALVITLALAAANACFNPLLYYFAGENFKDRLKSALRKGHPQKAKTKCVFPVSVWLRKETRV", "experiment": "Inhibition of increase of intracellular Ca++ concentration elicited by LTC4 or LTD4, CHO cells stably expressing LTC4 receptors", "type": "cell-based", "protocol": "After culturing for 24 hours, medium was discarded and 100 μl/well of Hanks BSS containing 4 μM Fluo-3, AM (Molecular Probe), 0.004% pluronic acid, 1% FBS, 20 mM HEPES, and 2.5 mM probenecid was added, and incubated at 37° C. for 1 hour.\nThe changes of intracellular Ca^++ concentration were measured using FLIPR with the same condition as in Example 6."}, "LTC4 receptor [5]": {"target": "T3, LTC4 receptor", "experiment": "Inhibition of [3H]-LTC4 binding, membrane fraction of CHO cells stably expressing LTC4 receptor", "settings": "0.5×10^−9 M [3H]-LTC4; 15 μg CHO membrane fraction; 1 hour, room temperature", "protocol": "Micro-scintillator was added to the glass filter and the radioactivity was measured by a liquid scintillation counter. […] Compound A was produced as follows."}, "LTC4 receptor [6]": {"target": "T3, LTC4 receptor", "experiment": "Cell migration of CHO cells expressing LTC4 receptors elicited by LTC4", "type": "cell-based", "settings": "compound in upper layer, 3 nM LTC4 in lower layer", "quoted_text": "After culturing for 4 hours in a CO2 incubator at 37° C., the frame filter was fixed in methanol and stained with Diff-Quik staining kit (Kokusai-Shiyaku). The upper surface (the side onto which the cells were inoculated) of the filter was wiped, and after air drying, absorbance at 595 nm was measured with the plate reader (Molecular Devices)."}},
  "data": [
    {"smiles": "CCCCC/C=C\\C\\C=C/C=C/C=C/[C@@H](SC[C@H](N)C(=O)NCC(=O)O)[C@@H](O)CCCC(=O)O", "note": "[LTD4, leukotriene D4]", "values": [
      {"measurement": "EC50", "setting": "pig LTC4 receptor [1]", "result": 3.3, "unit": "nM"},
      {"measurement": "EC50", "setting": "rat LTC4 receptor", "result": 7.7, "unit": "nM"}
    ]},
    {"smiles": "CCCCC/C=C\\C\\C=C/C=C/C=C/[C@@H](SC[C@H](NC(=O)CC[C@H](N)C(=O)O)C(=O)NCC(=O)O)[C@@H](O)CCCC(=O)O", "note": "[LTC4, leukotriene C4]", "values": [
      {"measurement": "increase of intracellular Ca++ concentration", "setting": "[2]; 10^−6 to 10^−9 M LTC4", "result": "induce increase of the intracellular Ca^++ concentration in a dose-dependent manner"},
      {"measurement": "EC50", "setting": "pig LTC4 receptor [1]", "result": 5, "unit": "nM"},
      {"measurement": "maximum binding (Bmax)", "setting": "pig LTC4 receptor [3]; Scatchard analysis, COS-1 membrane fraction", "result": 0.25, "unit": "pmol/mg protein"},
      {"measurement": "Kd", "setting": "pig LTC4 receptor [3]; read-out: dissociation constant of LTC4 binding (Kd), Scatchard analysis, COS-1 membrane fraction", "result": 2.89, "unit": "nM"},
      {"measurement": "EC50", "setting": "rat LTC4 receptor", "result": 19, "unit": "nM"}
    ]},
    {"smiles": "CCCn1c(-c2ccc3c(S(=O)(=O)Nc4onc(C)c4C)cccc3c2)nc2ccccc21", "note": "[Compound A, N-(3,4-dimethyl-5-isoxazolyl)-6-(1-propyl-1H-benzimidazol-2-yl) -1-naphthalenesulfonamide]", "values": [
      {"measurement": "inhibition of increase of intracellular Ca++ concentration by LTC4", "setting": "[2]; 5 min pre-treatment", "result": "inhibit dose-dependently"},
      {"measurement": "IC50", "setting": "LTC4 receptor [4]", "result": 2300, "unit": "nM"},
      {"measurement": "inhibition of increase of intracellular Ca++ concentration elicited by LTD4", "setting": "LTC4 receptor [4]; CHO stable cells, LTD4 stimulus", "result": "inhibited dose-dependently"},
      {"measurement": "IC50", "setting": "LTC4 receptor [5]", "result": 1200, "unit": "nM"},
      {"measurement": "inhibition of cell migration by LTC4", "setting": "LTC4 receptor [6]", "result": "inhibits dose-dependently"}
    ]}
  ]
}
